Data taken from patent US20110178142A1, “PHARMACEUTICAL COMPOSITION FOR THERAPEUTIC OR PROPHYLACTIC TREATMENT OF BACTERIAL INFECTIONS AND ASSOCIATED DISEASES” (National Institute of Immunology, priority 2008, published 2011).

Tests used:
FtsZ [1] = molecular target: T1, FtsZ (Escherichia coli, UniProt P0A9A6); experiment: Sedimentation assay of FtsZ polymerization; type: biochemical, E. coli; conditions: 50 μM compound; FtsZ 12 μM
T1 construct: The recombinant protein is exactly same as the natural protein; made in house; host or cells: E. coli BL21
T1 sequence (P0A9A6 whole entry): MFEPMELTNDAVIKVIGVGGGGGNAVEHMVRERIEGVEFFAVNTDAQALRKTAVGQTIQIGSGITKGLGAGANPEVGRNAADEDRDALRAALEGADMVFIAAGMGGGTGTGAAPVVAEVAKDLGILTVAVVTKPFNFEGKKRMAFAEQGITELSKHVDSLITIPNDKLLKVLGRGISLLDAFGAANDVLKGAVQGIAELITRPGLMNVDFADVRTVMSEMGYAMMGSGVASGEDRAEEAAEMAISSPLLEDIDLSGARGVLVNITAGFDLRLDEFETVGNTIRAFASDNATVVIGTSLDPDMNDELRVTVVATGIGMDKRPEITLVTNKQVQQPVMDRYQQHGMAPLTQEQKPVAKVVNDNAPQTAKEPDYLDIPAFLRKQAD
Text: FtsZ was over-expressed and purified from E. coli BL21 strain as described by Santa and Panda. (Detection of an intermediate during unfolding of bacterial cell division protein FtsZ: loss of functional properties precedes the global unfolding of FtsZ. (2003). The Journal of Biological Chemistry. 278, 21336-43). The recombinant protein is exactly same as the natural protein. For all the experimental procedures, the above expressed and purified recombinant FtsZ was used. The FtsZ concentration was measured by the Bradford method using BSA as a standard (Bradford M M. (1976) A rapid and sensitive method for the quantitation of microgram quantities of protein utilizing the principle of protein-dye binding. Analytical Biochemistry. 72, 248-54). The purified protein was frozen and stored at −80° C. […]
Then, 10 mM MgSO4 and 1 mM GTP were added to the reaction mixtures and incubated for an additional 15 min at 37° C. Polymerized FtsZ was sedimented at 287,000×g for […], and the protein concentration in the supernatant was measured (Santra M K and Panda D. (2007) Acid-induced loss of functional properties of bacterial cell division protein FtsZ: evidence for an alternative conformation at acidic pH, Proteins. 67,177-88). The protein concentration in the pellet was calculated by subtracting the protein concentration in the supernatant from the total protein concentration.

FtsZ [2] = molecular target: T1, FtsZ; experiment: Electron microscopic analysis of FtsZ assembly; type: biochemical, E. coli
Text: (§1) FtsZ was over-expressed and purified from E. coli BL21 strain as described by Santa and Panda. (Detection of an intermediate during unfolding of bacterial cell division protein FtsZ: loss of functional properties precedes the global unfolding of FtsZ. (2003). The Journal of Biological Chemistry. 278, 21336-43). The recombinant protein is exactly same as the natural protein. For all the experimental procedures, the above expressed and purified recombinant FtsZ was used. The FtsZ concentration was measured by the Bradford method using BSA as a standard (Bradford M M. (1976) A rapid and sensitive method for the quantitation of microgram quantities of protein utilizing the principle of protein-dye binding. Analytical Biochemistry. 72, 248-54). The purified protein was frozen and stored at −80° C. Prior to use, FtsZ was thawed and centrifuged at 287,000 ×g for 30 min to remove any insoluble aggregates.
FtsZ (12 μM) in 25 mM pipes buffer (pH 6.5) was incubated without or with different concentrations of compound for 10 min on ice. Then, 10 mM MgSO4 and 1 mM GTP were added to the reaction mixtures and incubated for an additional 15 min at 37° C. Samples were transferred onto a formvar-carbon coated copper grid, stained with 2% uranyl acetate and observed using Transmission Electron Microscope (FEI TECHNAI G^2 12) as described previously (Beuria T K, Santra M K and Panda D. (2005) Sanguinarine blocks cytokinesis in bacteria by inhibiting FtsZ assembly and bundling. Biochemistry. 44, 16584-93).
The observed difference in the thickness of the FtsZ protofilament bundles in the absence and presence of 10 and 25 μM concentration is significant at a 99.9% confidence level (p<0.001).

FtsZ [3] = molecular target: T1, FtsZ; experiment: Dilution-induced disassembly of preformed FtsZ filaments; type: biochemical, E. coli; conditions: 20 fold dilution, 5 min at 37° C., concentration dependent
Text: as §1
FtsZ (30 μM) was polymerized in 25 mM pipes buffer in the presence of 5 mM MgCl2, 1 mM GTP and 50 mM KCl. Preformed FtsZ polymers were diluted 20 fold in warm 25 mM pipes buffer in the absence and presence of different concentrations of Compound 1 and the mixtures were incubated for 5 min at 37° C. The polymers were then collected by centrifugation.

FtsZ [4] = molecular target: T1, FtsZ; experiment: GTPase activity of FtsZ (malachite green ammonium molybdate assay); type: biochemical, E. coli
Text: as §1
It was then polymerized in the presence of 10 mM magnesium and 1 mM GTP at 37° C. The GTP hydrolysis reaction was quenched at different time points by adding perchloric acid. Moles of inorganic phosphate released per mole of FtsZ were measured using the standard malachite green ammonium molybdate assay (Geladopoulos T P, Sotiroudis T G and Evangelopoulos A E. (1991). A malachite green colorimetric assay for protein phosphatase activity. Analytical Biochemistry.192,112-6;Beuria T K, Krishnakumar S S, Sahar S, Singh N, Gupta K, Meshram M and Panda D. (2003) Glutamate-induced assembly of bacterial cell division protein FtsZ. The Journal of Biological Chemistry. 278, 3735-41).

FtsZ (Y371W) = molecular target: T2, FtsZ (Y371W) (Escherichia coli, UniProt P0A9A6, Y371W); experiment: Binding to FtsZ by tryptophan fluorescence quenching, double reciprocal plot; set-up: species or system E. coli; conditions: FtsZ (Y371W) 1 μM, 25° C., read-out: dissociation constant of FtsZ-compound complex
T2 sequence (P0A9A6 1-383 Y371W): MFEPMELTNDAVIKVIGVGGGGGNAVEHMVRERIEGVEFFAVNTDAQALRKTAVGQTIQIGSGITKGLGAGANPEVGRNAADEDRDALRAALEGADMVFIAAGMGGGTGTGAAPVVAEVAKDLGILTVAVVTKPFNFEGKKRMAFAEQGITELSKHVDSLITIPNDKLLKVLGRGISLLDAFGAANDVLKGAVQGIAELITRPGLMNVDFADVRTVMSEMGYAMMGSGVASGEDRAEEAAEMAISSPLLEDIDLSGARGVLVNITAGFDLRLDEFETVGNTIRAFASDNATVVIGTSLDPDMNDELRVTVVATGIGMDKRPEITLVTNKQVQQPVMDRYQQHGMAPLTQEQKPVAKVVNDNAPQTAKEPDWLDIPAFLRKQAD
Experimental: (Beuria T K, Santra M K and Panda D. (2005) Sanguinarine blocks cytokinesis in bacteria by inhibiting FtsZ assembly and bundling. Biochemistry. 44, 16584-93). […] The change in the fluorescence intensity was used to calculate the dissociation constant of FtsZ-compound complex. A dissociation constant of 15±1.5 μM was determined using a double reciprocal plot of the binding data (FIG. 5B).

FtsZ [5] = molecular target: T1, FtsZ; experiment: Far-UV circular dichroism of FtsZ; set-up: species or system E. coli; conditions: 0-50 μM compound; FtsZ 1 μM
Text: as §1
The far-UV CD spectra were recorded using a JASCO spectropolarimeter. The secondary structure was monitored over the wavelength range of 200-260 nm using a 0.1-cm path length cuvette and the ellipticity was determined at 220 nm. Each spectrum was recorded using an average of 3 scans.

SMILES: O=C(O)c1cccc(-c2ccc(C=C3SC(=S)N(c4cccc(C(F)(F)F)c4)C3=O)o2)c1 [the compound, 3-{5-[4-Oxo-2-thioxo-3-(3-trifluoromethyl-phenyl)-thiazolidin-5-ylidenemethyl]-furan-2-yl}-benzoic acid]
- increase of sedimentable polymeric mass of FtsZ (FtsZ [1]): 25%
- average thickness of FtsZ bundles (FtsZ [2]; 10 μM compound): 64±3 nm
- average thickness of FtsZ bundles (FtsZ [2]; 25 μM compound): 66±4.3 nm
- average thickness of FtsZ bundles (FtsZ [2]; 50 μM compound, large number of aggregates observed): 46±3.5 nm
- dilution-induced disassembly of FtsZ protofilaments (FtsZ [3]): strongly prevented
- rate of GTP hydrolysis at 5 min (FtsZ [4]; 10 μM compound): 2.9 phosphate release per FtsZ per min
- rate of GTP hydrolysis at 5 min (FtsZ [4]; 25 μM compound): 1.5 phosphate release per FtsZ per min
- rate of GTP hydrolysis at 5 min (FtsZ [4]; 50 μM compound): 1.3 phosphate release per FtsZ per min
- Kd (FtsZ (Y371W)): 15 ± 1.5 µM
- effect on secondary structure of FtsZ (far-UV CD) (FtsZ [5]): did not change the secondary structure
